Results: patent US6362134B1, “Herbicidal 1,2,4,6-thiatriazines” (Syngenta Investment Corporation, priority 1996, dated 2002)

Tests used:
Type in all cases: in vivo
[1] = tested on: Sinapis; assay: Post-emergent herbicidal action (contact herbicide); design: key: 1=complete damage; 9=no action; Ratings of 1 to 4 (in particular 1 to 3) mean a good to very good herbicidal action; conditions: 2000 g of active substance/ha, sprayed in the 4- to 6-leaf stage, evaluated after about 18 days, ratings scale 1-9
Protocol: (§1) Monocotyledon and dicotyledon test plants are grown in plastic pots with standard soil in a greenhouse and, in the 4- to 6-leaf stage, are sprayed with an aqueous suspension of the test substances of the formula 1, prepared from a 25% wettable power (Example F3, b)), corresponding to a dosage of 2000 g of active substance/ha (500 l of water/ha). The test plants are then grown further in the greenhouse under optimum conditions. After a test period of about 18 days, the test is evaluated with a ratings scale of 9 levels (1=complete damage, 9=no action). Ratings of 1 to 4 (in particular 1 to 3) mean a good to very good herbicidal action.
(§2) Test plants: Sinapis, Stellaria

[2] = tested on: Stellaria; assay: as above; design: key: 1=complete damage; 9=no action; Ratings of 1 to 4 (in particular 1 to 3) mean a good to very good herbicidal action; conditions: 2000 g of active substance/ha, sprayed in the 4- to 6-leaf stage, evaluated after about 18 days, ratings scale 1-9
Protocol: as §1, §2

[3] = tested on: Sinapis; assay: Herbicidal action before emergence of the plants (pre-emergent action); design: key: 1=complete damage; 9=no action; Ratings of 1 to 4 (in particular 1 to 3) mean a good to very good herbicidal action; conditions: 2000 g of active substance/ha, sprayed immediately after sowing, evaluated after 3 weeks, ratings scale of nine levels
Protocol: (§3) Monocotyledon and dicotyledon test plants are sown in standard soil in plastic pots. Immediately after sowing, the test substances are sprayed on (500 l of water/ha) in an aqueous suspension prepared from a 25% wettable powder (Example F3, b)), corresponding to a dosage of 2000 g of active substance/ha. The test plants are then grown under optimum conditions in a greenhouse. After a test period of 3 weeks, the test is evaluated with a ratings scale of nine levels (1=complete damage, 9=no action). Ratings of 1 to 4 (in particular 1 to 3) mean a good to very good herbicidal action.
(§4) Test plants: Avena, Setaria, Sinapis, Stellaria

[4] = tested on: Setaria; assay: as above; design: key: 1=complete damage; 9=no action; Ratings of 1 to 4 (in particular 1 to 3) mean a good to very good herbicidal action; conditions: 2000 g of active substance/ha, sprayed immediately after sowing, evaluated after 3 weeks, ratings scale of nine levels
Protocol: as §3, §4

[5] = tested on: Stellaria; assay: as above; design: key: 1=complete damage; 9=no action; Ratings of 1 to 4 (in particular 1 to 3) mean a good to very good herbicidal action; conditions: 2000 g of active substance/ha, sprayed immediately after sowing, evaluated after 3 weeks, ratings scale of nine levels
Protocol: as §3, §4

[6] = tested on: Avena; assay: as above; conditions: 2000 g of active substance/ha, sprayed immediately after sowing, evaluated after 3 weeks, ratings scale of nine levels (1=complete damage, 9=no action)
Protocol: as §3, §4

CN(Cc1ccccc1)S1=NC(N)=NC(Oc2c(F)c(F)c(F)c(F)c2F)=N1 (stereo not drawn) [6.192]
Post-emergent action, rating, Sinapis [1]: 2
Post-emergent action, rating, Stellaria [2]: 4
Pre-emergent action, rating, Sinapis [3]: 1
Pre-emergent action, rating, Setaria [4]: 1
Pre-emergent action, rating, Stellaria [5]: 1
Pre-emergent action, rating, Avena [6]: 2

NC1=NC(Oc2c(F)c(F)c(F)c(F)c2F)=NS(N2CCCC3CCCCC32)=N1 (stereo not drawn) [6.37]
Post-emergent action, rating, Sinapis [1]: 3
Post-emergent action, rating, Stellaria [2]: 2
Pre-emergent action, rating, Sinapis [3]: 1
Pre-emergent action, rating, Setaria [4]: 2
Pre-emergent action, rating, Stellaria [5]: 1
Pre-emergent action, rating, Avena [6]: 3

CCCC(CC)OS1=NC(N)=NC(Oc2c(F)c(F)c(F)c(F)c2F)=N1 (stereo not drawn) [5.332]
Post-emergent action, rating, Sinapis [1]: 1
Post-emergent action, rating, Stellaria [2]: 2
Pre-emergent action, rating, Sinapis [3]: 1
Pre-emergent action, rating, Setaria [4]: 1
Pre-emergent action, rating, Stellaria [5]: 1
Pre-emergent action, rating, Avena [6]: 3

NC1=NS(N2CCCCCCCC2)=NC(Oc2c(F)c(F)cc(F)c2F)=N1 (stereo not drawn) [6.302]
Post-emergent action, rating, Sinapis [1]: 2
Post-emergent action, rating, Stellaria [2]: 3
Pre-emergent action, rating, Sinapis [3]: 1
Pre-emergent action, rating, Setaria [4]: 2
Pre-emergent action, rating, Stellaria [5]: 1
Pre-emergent action, rating, Avena [6]: 3

NC1=NC(Oc2c(F)c(F)c(F)c(F)c2F)=NS(N2CCC[C@H]3CCC[C@H]32)=N1 (relative stereo) [6.27]
Post-emergent action, rating, Sinapis [1]: 2
Post-emergent action, rating, Stellaria [2]: 3
Pre-emergent action, rating, Sinapis [3]: 2
Pre-emergent action, rating, Setaria [4]: 3
Pre-emergent action, rating, Stellaria [5]: 1
Pre-emergent action, rating, Avena [6]: 4

CC1CCN(S2=NC(N)=NC(Oc3c(F)c(F)c(F)c(F)c3F)=N2)C2CCCCC12 (stereo not drawn) [6.285]
Post-emergent action, rating, Sinapis [1]: 2
Post-emergent action, rating, Stellaria [2]: 3
Pre-emergent action, rating, Sinapis [3]: 1
Pre-emergent action, rating, Setaria [4]: 2
Pre-emergent action, rating, Stellaria [5]: 1
Pre-emergent action, rating, Avena [6]: 5

CC1CCC2C(CCN2S2=NC(N)=NC(Oc3c(F)c(F)c(F)c(F)c3F)=N2)C1 (stereo not drawn) [6.298]
Post-emergent action, rating, Sinapis [1]: 1
Post-emergent action, rating, Stellaria [2]: 4
Pre-emergent action, rating, Sinapis [3]: 1
Pre-emergent action, rating, Setaria [4]: 2
Pre-emergent action, rating, Stellaria [5]: 1
Pre-emergent action, rating, Avena [6]: 3

CC1CC2CCCCC2N(S2=NC(N)=NC(Oc3c(F)c(F)c(F)c(F)c3F)=N2)C1 (stereo not drawn) [6.292]
Post-emergent action, rating, Sinapis [1]: 2
Post-emergent action, rating, Stellaria [2]: 3
Pre-emergent action, rating, Sinapis [3]: 1
Pre-emergent action, rating, Setaria [4]: 1
Pre-emergent action, rating, Stellaria [5]: 1
Pre-emergent action, rating, Avena [6]: 5

NC1=NC(Oc2cc(F)ccc2F)=NS(N2CCCC3CCCCC32)=N1 (stereo not drawn) [6.135]
Post-emergent action, rating, Sinapis [1]: 3
Post-emergent action, rating, Stellaria [2]: 3
Pre-emergent action, rating, Sinapis [3]: 1
Pre-emergent action, rating, Setaria [4]: 3
Pre-emergent action, rating, Stellaria [5]: 1
Pre-emergent action, rating, Avena [6]: 3

CC1CN(S2=NC(N)=NC(Oc3c(F)c(F)c(F)c(F)c3F)=N2)CCC(C)(C)C1 (single isomer, unassigned) [6.92]
Post-emergent action, rating, Sinapis [1]: 1
Post-emergent action, rating, Stellaria [2]: 1
Pre-emergent action, rating, Sinapis [3]: 1
Pre-emergent action, rating, Setaria [4]: 1
Pre-emergent action, rating, Stellaria [5]: 1
Pre-emergent action, rating, Avena [6]: 4

CC1CC(C)CC(OS2=NC(N)=NC(Oc3c(F)c(F)c(F)c(F)c3F)=N2)C1 (stereo not drawn) [5.120]
Post-emergent action, rating, Sinapis [1]: 2
Post-emergent action, rating, Stellaria [2]: 3
Pre-emergent action, rating, Sinapis [3]: 1
Pre-emergent action, rating, Setaria [4]: 2
Pre-emergent action, rating, Stellaria [5]: 1
Pre-emergent action, rating, Avena [6]: 4

NC1=NC(Oc2c(F)c(F)c(F)c(F)c2F)=NS(N2CCc3ccccc3CC2)=N1 (stereo not drawn) [6.200]
Post-emergent action, rating, Sinapis [1]: 2
Post-emergent action, rating, Stellaria [2]: 2
Pre-emergent action, rating, Sinapis [3]: 1
Pre-emergent action, rating, Setaria [4]: 1
Pre-emergent action, rating, Stellaria [5]: 1
Pre-emergent action, rating, Avena [6]: 4

CC1CC(N(C)S2=NC(N)=NC(Oc3c(F)c(F)c(F)c(F)c3F)=N2)CC(C)(C)C1 (stereo not drawn) [6.194]
Post-emergent action, rating, Sinapis [1]: 2
Post-emergent action, rating, Stellaria [2]: 4
Pre-emergent action, rating, Sinapis [3]: 2
Pre-emergent action, rating, Setaria [4]: 5
Pre-emergent action, rating, Stellaria [5]: 2
Pre-emergent action, rating, Avena [6]: 7

NC1=NC(Oc2c(F)c(F)c(F)c(F)c2F)=NS(N2CCCCCC2)=N1 (stereo not drawn) [6.229]
Post-emergent action, rating, Sinapis [1]: 2
Post-emergent action, rating, Stellaria [2]: 3
Pre-emergent action, rating, Sinapis [3]: 1
Pre-emergent action, rating, Setaria [4]: 2
Pre-emergent action, rating, Stellaria [5]: 1
Pre-emergent action, rating, Avena [6]: 3

CC1CC2CCCCC2N1S1=NC(N)=NC(Oc2c(F)c(F)c(F)c(F)c2F)=N1 (stereo not drawn) [6.282]
Post-emergent action, rating, Sinapis [1]: 1
Post-emergent action, rating, Stellaria [2]: 5
Pre-emergent action, rating, Sinapis [3]: 1
Pre-emergent action, rating, Setaria [4]: 2
Pre-emergent action, rating, Stellaria [5]: 1
Pre-emergent action, rating, Avena [6]: 4

CC1CN(S2=NC(N)=NC(Oc3c(F)c(F)c(F)c(F)c3F)=N2)CCC(C)(C)C1 (single isomer, unassigned) [6.93]
Post-emergent action, rating, Sinapis [1]: 1
Post-emergent action, rating, Stellaria [2]: 1
Pre-emergent action, rating, Sinapis [3]: 1
Pre-emergent action, rating, Setaria [4]: 1
Pre-emergent action, rating, Stellaria [5]: 1
Pre-emergent action, rating, Avena [6]: 2

CC(C)(C)C1CCC(OS2=NC(N)=NC(Oc3c(F)c(F)c(F)c(F)c3F)=N2)CC1 (stereo not drawn) [5.127]
Post-emergent action, rating, Sinapis [1]: 2
Post-emergent action, rating, Stellaria [2]: 3
Pre-emergent action, rating, Sinapis [3]: 1
Pre-emergent action, rating, Setaria [4]: 2
Pre-emergent action, rating, Stellaria [5]: 1
Pre-emergent action, rating, Avena [6]: 4

CC1(C)CCCN(S2=NC(N)=NC(Oc3c(F)c(F)c(F)c(F)c3F)=N2)C1 (stereo not drawn) [6.34]
Post-emergent action, rating, Sinapis [1]: 2
Post-emergent action, rating, Stellaria [2]: 2
Pre-emergent action, rating, Sinapis [3]: 1
Pre-emergent action, rating, Setaria [4]: 1
Pre-emergent action, rating, Stellaria [5]: 1
Pre-emergent action, rating, Avena [6]: 3

C[Si](C)(C)COS1=NC(N)=NC(Oc2c(F)c(F)c(F)c(F)c2F)=N1 (stereo not drawn) [5.321]
Post-emergent action, rating, Sinapis [1]: 2
Post-emergent action, rating, Stellaria [2]: 2
Pre-emergent action, rating, Sinapis [3]: 1
Pre-emergent action, rating, Setaria [4]: 1
Pre-emergent action, rating, Stellaria [5]: 1
Pre-emergent action, rating, Avena [6]: 3

CC1(C)CCC(OS2=NC(N)=NC(Oc3c(F)c(F)c(F)c(F)c3F)=N2)CC1 (stereo not drawn) [5.52]
Post-emergent action, rating, Sinapis [1]: 2
Post-emergent action, rating, Stellaria [2]: 2
Pre-emergent action, rating, Sinapis [3]: 1
Pre-emergent action, rating, Setaria [4]: 2
Pre-emergent action, rating, Stellaria [5]: 1
Pre-emergent action, rating, Avena [6]: 4

NC1=NS(N2CCCCCCCC2)=NC(Oc2c(F)c(F)c(F)c(F)c2F)=N1 (stereo not drawn) [6.257]
Post-emergent action, rating, Sinapis [1]: 2
Post-emergent action, rating, Stellaria [2]: 2
Pre-emergent action, rating, Sinapis [3]: 1
Pre-emergent action, rating, Setaria [4]: 2
Pre-emergent action, rating, Stellaria [5]: 1
Pre-emergent action, rating, Avena [6]: 3

CC1CC(OS2=NC(N)=NC(Oc3c(F)c(F)c(F)c(F)c3F)=N2)CC(C)(C)C1 (stereo not drawn) [5.78]
Post-emergent action, rating, Sinapis [1]: 2
Post-emergent action, rating, Stellaria [2]: 3
Pre-emergent action, rating, Sinapis [3]: 2
Pre-emergent action, rating, Setaria [4]: 2
Pre-emergent action, rating, Stellaria [5]: 1
Pre-emergent action, rating, Avena [6]: 3
